Type in all cases: cell-based
The subject of data set [1] is mouse epidermal stem cells. Briefly: Cell proliferation and differentiation of engineered mouse epidermal cells in vitro (cell cycle FACS, calcium shift western blot). As for the experimental part: Primary human neonatal epidermal keratinocytes were obtained from Thermo Fischer® (C0015C), and cultured with Epilife® medium (Thermo Fischer, M-EPICF-500) with manufacturer's recommended procedures. Calcium shift was performed to induce differentiation of primary keratinocytes by increasing the calcium concentration in culture media to 1.5 mM.
Propidium iodide (PI) staining followed by flow cytometry were used to determine the effect of cell cycle profiles. Mouse and human epidermal cells were cultured in two 6 cm cell culture dish for 24 hours, respectively. Cells were trypsinized, and 1×10^5 cells from each dish were collected, followed by one PBS wash. […] After staining, the cells were analyzed immediately using flow cytometer BD FACSCanto™ II (BD Biosciences, San Jose, CA) with an excitation wavelength at 488 nm and emission at 585 nm. DNA content and histograms of cell cycle distribution were analyzed using FlowJo™ software, version 10 (FLOWJO LLC, OR).
Western blotting was performed as described previously (Blanpain et al.). […] Visualization and quantification was carried out with the LI-COR Odyssey® scanner and software (LI-COR Biosciences).
Propidium iodide (PI) staining followed by flow cytometry were used to determine the effect of cell cycle profiles. […] DNA content and histograms of cell cycle distribution were analyzed using FlowJo™ software, version 10 (FLOWJO LLC, OR). […]

Another data set has as its system mouse epidermal cells. Briefly: Secretion of GLP1 in cell culture medium by ELISA (mouse epidermal cells).
The next data set has as its system insulinoma cells. As to the kind of experiment: Insulin secretion of starved insulinoma cells treated with conditioned medium (ELISA). Background: In an ELISA, binding on a coated surface is turned into a signal by an enzyme label.

In the case of GLP1, the “effect of expression on cell proliferation / differentiation in vitro” value in data set [1] is given as “did not significantly change cell proliferation”. Further, in the data set on mouse epidermal cells (GLP1/GGBP expression cassette, constitutive), the “GLP1 production and secretion” value was “robust GLP1 production and secretion”. In the data set with mouse epidermal cells (tetracycline-inducible cassette, doxycycline stimulation), the GLP1 production entry is “robust GLP1 production upon stimulation with doxycycline in a dose-dependent manner”. The “insulin secretion induced by conditioned medium” value with insulinoma cells (conditioned medium from mouse epidermal cells) is “significantly induce secretion of insulin”. For the same substance, in the data set on insulinoma cells (from human epidermal cells), the “insulin secretion induced by secreted GLP1 fusion protein” value is “induced insulin secretion in vitro”.

Values taken from patent US20230392126A1, “TISSUE ORGANOIDS” (priority 2016, published 2023).
